Inconclusive results and toxic doses are left out. No stated cut-off is given here; in the data, active means T/C of 150% or more; inactive means T/C below 125%.
Test system: L1210 leukemia ip in BDF1 mice, survival T/C
Experiment: NCI In Vivo Anticancer Drug Screen. Data for tumor model L1210 Leukemia (intraperitoneal) in B6D2F1 (BDF1) mice
Settings: endpoint: mean survival time, higher = longer survival
In short: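 Tumor was transplanted into mice, which were then dosed with test compound or vehicle alone. Survival was recorded for each group, and the treated figure was expressed relative to the control figure.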

[1] = dose: 100.0 mg/kg/injection, schedule: Q01DX009 (ip), vehicle: Klucel (hydroxypropylcellulose) (HPC)
[2] = dose: 200.0 mg/kg/injection, schedule: Q01DX009 (ip), vehicle: Klucel (hydroxypropylcellulose) (HPC)

Measured: T/C

CC1=C(CO)C(=O)O[C@@H]([C@@H](C)[C@H]2CC[C@H]3[C@@H]4C[C@H]5O[C@]56[C@@H](O)C=CC(=O)[C@]6(C)[C@H]4CC[C@]23C)C1
inactive: dose: 10.0 mg/kg/injection, schedule: Q01DX Z (ip), vehicle: carboxymethylcellulose (CMC) 98 % of control | dose: 20.0 mg/kg/injection, schedule: Q01DX Z (ip), vehicle: carboxymethylcellulose (CMC) 101 % of control | dose: 50.0 mg/kg/injection, schedule: Q01DX001 (sc), vehicle: steriod suspending solution 103 % of control | dose: 100.0 mg/kg/injection, schedule: Q01DX001 (sc), vehicle: steriod suspending solution 100 % of control | dose: 200.0 mg/kg/injection, schedule: Q01DX001 (sc), vehicle: steriod suspending solution 103 % of control

O=C1NCC(O)CN1
inactive: dose: 29.0 mg/kg/injection, schedule: Q01DX Z (ip), vehicle: methylcellulose (MC) 96 % of control | dose: 45.0 mg/kg/injection, schedule: Q01DX Z (ip), vehicle: methylcellulose (MC) 96 % of control | dose: 67.0 mg/kg/injection, schedule: Q01DX Z (ip), vehicle: methylcellulose (MC) 108 % of control | dose: 100.0 mg/kg/injection, schedule: Q01DX Z (ip), vehicle: methylcellulose (MC) 104 % of control

CCCCCCCCCCCCOC(=O)C(Cl)(Cl)Cl
inactive: dose: 100.0 mg/kg/injection, schedule: Q01DX001 (ip), vehicle: other 93 % of control | dose: 100.0 mg/kg/injection, schedule: Q04DX003 (ip), vehicle: other 102 % of control | dose: 200.0 mg/kg/injection, schedule: Q01DX001 (ip), vehicle: other 96 % of control | dose: 200.0 mg/kg/injection, schedule: Q04DX003 (ip), vehicle: other 96 % of control | dose: 400.0 mg/kg/injection, schedule: Q01DX001 (ip), vehicle: other 93 % of control | dose: 400.0 mg/kg/injection, schedule: Q04DX003 (ip), vehicle: other 97 % of control

Cc1ccc2c(c1)C1CCC3(CC1OC2(C)C)OC(C)(C)c1cc(C)ccc13 (stereo unspecified)
inactive: [1] 95 % of control | dose: 100.0 mg/kg/injection, schedule: Q04DX003 (ip), vehicle: Klucel (hydroxypropylcellulose) (HPC) 105 % of control | [2] 89 % of control | dose: 200.0 mg/kg/injection, schedule: Q04DX003 (ip), vehicle: Klucel (hydroxypropylcellulose) (HPC) 95 % of control | dose: 400.0 mg/kg/injection, schedule: Q04DX003 (ip), vehicle: Klucel (hydroxypropylcellulose) (HPC) 95 % of control

CC1=CC(c2c(O)cccc2O)C(=C(C)C)CC1 (stereo unspecified)
inactive: dose: 50.0 mg/kg/injection, schedule: Q01DX009 (ip), vehicle: Klucel (hydroxypropylcellulose) (HPC) 95 % of control | [1] 95 % of control | [2] 95 % of control

CCCCCCCCCCCCC(=O)N(CC)CC
inactive: dose: 100.0 mg/kg/injection, schedule: Q04DX002 (ip), vehicle: Klucel (hydroxypropylcellulose) (HPC) 87 % of control | dose: 200.0 mg/kg/injection, schedule: Q04DX002 (ip), vehicle: Klucel (hydroxypropylcellulose) (HPC) 94 % of control | dose: 400.0 mg/kg/injection, schedule: Q04DX002 (ip), vehicle: Klucel (hydroxypropylcellulose) (HPC) 94 % of control

COc1ccccc1NC(=O)Nc1cc(C)cc(C)n1
inactive: dose: 100.0 mg/kg/injection, schedule: Q01DX009 (ip), vehicle: saline with Tween-80 101 % of control | dose: 100.0 mg/kg/injection, schedule: Q04DX003 (ip), vehicle: saline with Tween-80 97 % of control | dose: 200.0 mg/kg/injection, schedule: Q01DX009 (ip), vehicle: saline with Tween-80 98 % of control | dose: 200.0 mg/kg/injection, schedule: Q04DX003 (ip), vehicle: saline with Tween-80 97 % of control | dose: 400.0 mg/kg/injection, schedule: Q01DX009 (ip), vehicle: saline with Tween-80 104 % of control | dose: 400.0 mg/kg/injection, schedule: Q04DX003 (ip), vehicle: saline with Tween-80 101 % of control

CCCCCC(CN(C)C)C(O)/C=C\c1ccccc1 (stereo unspecified)
inactive: dose: 12.5 mg/kg/injection, schedule: Q01DX009 (sc), vehicle: steriod suspending solution 97 % of control | dose: 12.5 mg/kg/injection, schedule: Q04DX003 (ip), vehicle: other 119 % of control | dose: 25.0 mg/kg/injection, schedule: Q01DX009 (sc), vehicle: steriod suspending solution 98 % of control | dose: 25.0 mg/kg/injection, schedule: Q04DX003 (ip), vehicle: other 106 % of control | dose: 50.0 mg/kg/injection, schedule: Q01DX009 (sc), vehicle: steriod suspending solution 97 % of control | dose: 50.0 mg/kg/injection, schedule: Q04DX003 (ip), vehicle: other 103 % of control

CCCCCCCCC/C(=N\Nc1ccc([N+](=O)[O-])cc1[N+](=O)[O-])c1ccccc1
inactive: dose: 100.0 mg/kg/injection, schedule: Q04DX003 (ip), vehicle: saline sonified 108 % of control | dose: 200.0 mg/kg/injection, schedule: Q04DX003 (ip), vehicle: saline sonified 98 % of control | dose: 400.0 mg/kg/injection, schedule: Q04DX003 (ip), vehicle: saline sonified 108 % of control

Cc1ccc(N2CCN(CCCN3CCN(c4ccccc4Cl)CC3)CC2)cc1
inactive: dose: 6.25 mg/kg/injection, schedule: Q01DX009 (ip), vehicle: saline with Tween-80 99 % of control | dose: 12.5 mg/kg/injection, schedule: Q01DX009 (ip), vehicle: saline with Tween-80 89 % of control | dose: 12.5 mg/kg/injection, schedule: Q04DX003 (ip), vehicle: saline 92 % of control | dose: 25.0 mg/kg/injection, schedule: Q01DX009 (ip), vehicle: saline with Tween-80 94 % of control | dose: 25.0 mg/kg/injection, schedule: Q04DX003 (ip), vehicle: saline 90 % of control

Source: PubChem BioAssay AID248 (DTP/NCI, 2004)
